Source: US11827665B2, “Process for the manufacture of (2S,3S,4S,5R,6S)-3,4,5-trihydroxy-6-(((4AR,10AR)-7-hydroxy-1-propyl-1,2,3,4,4A,5,10,10A-octahydrobenzo[g]quinolin-6-yl)oxy)tetrahydro-2H-pyran-2-carboxylic acid” (H. Lundbeck A/S, priority 2019, dated 2023)

Legend:
[1] = test system: Parkinson's disease; conditions: PD patients, intravenous (IV); cited from earlier work
[2] = man, oral dosing; cited from earlier work
[3] = test system: rat locomotor activity; experiment: Rat locomotor activity (hyperactivity) assay, open field, with PK/PD; format: in vivo, male CD rats; conditions: for Relationship between plasma concentration and hyperactivity: (Id) 100 μg/kg p.o. (plasma compound (I)), apomorphine 3 mg/kg s.c. (plasma apomorphine)
Procedure: Animals were dosed at t=60 minutes after a 60-minutes habituation period in test chambers, and activity was monitored for 350 minutes thereafter.
In total, 206 male CD rats (Charles River, Germany) weighing 200-250 grams (165-190 grams upon arrival) were used in the study. Animals were housed at a standard temperature (22±1° C.) and in a light-controlled environment (lights on from 7 am to […]) with ad libitum access to food and water. The experiment described below was performed in accordance with the standard operating procedures of Charles River Discovery Research Services Finland Ltd. and in accordance with the national Animal Experiment Board of Finland (Eläinkoelautakunta, ELLA) authority on animal testing.
The test device is a square Plexiglass-arena (measuring 40×40×40 cm), in which the movement paths of the rats are recorded by an activity monitor (Med. Associates Inc.). Before the test period is initiated, rats are habituated to their test cage for 60 minutes. Upon completion of habituation, animals were treated with either compound or vehicle and placed back into the open field apparatus. The main test parameter measured is ambulatory distance (recorded in 5-minute segments). Overall time of measurement after receiving initial treatment was 360 minutes. Total follow up period in the study was 420 min, including 60 min of habituation.

[4] = test system: human hepatocytes; experiment: Incubation with human hepatocytes; format: in vitro ADME
Procedure: (§1) The cell concentration at incubation was 1×10^6 viable cells/mL. The incubations were performed in glass tubes at 37° C. with a total incubation volume of 3.5 mL and with duplicate incubations for each test item. The 3.5 mL of hepatocyte suspension was equilibrated for 10 minutes in a water bath set to 37° C. where after the incubations were initiated by adding 3.5 μL of a stock solution of the test item in DMSO (Dimethyl sulfoxide) and gently inverting the tubes. The final solvent concentration in the incubations was 0.1% DMSO. Samples of 600 μL were withdrawn from the incubations at the pre-determined time points of 0.25, 5, 15, 30 and 60 minutes after ensuring homogeneity of hepatocyte suspensions. The withdrawn volume was added to 1 mL Nunc cryotubes on wet ice containing 60 μL of ice-cold ascorbic acid (100 mg/mL) and 30 μL of ice cold 100 mM saccharic acid 1.4-lactone in 0.5 M citric acid. The tubes were mixed and 35 μL of a solution of ice cold 20% formic acid was added. The tubes were mixed thoroughly and stored at −80° C. awaiting analysis.

[5] = test system: Parkinson's Disease animal models; conditions: WO 2010/097092; cited from earlier work
[6] = test system: rat hepatocytes; experiment: Incubation with rat hepatocytes; format: in vitro ADME
Procedure: as §1

[7] = PK experiments in rats: plasma compound (I) after oral dosing of prodrugs; format: in vivo, Han Wistar rats; conditions: Wistar rats, doses equal to 287 μg/kg of compound (I)
Procedure: Plasma was placed on water-ice following collection. Final storage at approximately −70° C.
Mobile phase B: Acetonitrile. […] Flow rate 0.5 mL/min.
The rats had unrestricted access to the diet.
Mobile phase B: Acetonitrile+0.2% formic acid. […] Flow rate 0.3 mL/min.
Dosing and blood sampling for compound (Ic): Han Wistar rats were supplied by Envigo, UK. […] The rats received a standard laboratory diet Teklad 2014C. The rats had unrestricted access to the diet. […] Rats were given 494 μg/kg (Ic).

[8] = target: T1, human 5-HT2B receptor (Homo sapiens, UniProt P41595); experiment: 5-HT2B agonist activity assay (IP1 production, HTRF); format: cell-based; conditions: for 5-HT2B receptor agonism (in words): example 6 and Table 2
T1 construct: host or cells: CHO
T1 sequence (P41595 whole entry): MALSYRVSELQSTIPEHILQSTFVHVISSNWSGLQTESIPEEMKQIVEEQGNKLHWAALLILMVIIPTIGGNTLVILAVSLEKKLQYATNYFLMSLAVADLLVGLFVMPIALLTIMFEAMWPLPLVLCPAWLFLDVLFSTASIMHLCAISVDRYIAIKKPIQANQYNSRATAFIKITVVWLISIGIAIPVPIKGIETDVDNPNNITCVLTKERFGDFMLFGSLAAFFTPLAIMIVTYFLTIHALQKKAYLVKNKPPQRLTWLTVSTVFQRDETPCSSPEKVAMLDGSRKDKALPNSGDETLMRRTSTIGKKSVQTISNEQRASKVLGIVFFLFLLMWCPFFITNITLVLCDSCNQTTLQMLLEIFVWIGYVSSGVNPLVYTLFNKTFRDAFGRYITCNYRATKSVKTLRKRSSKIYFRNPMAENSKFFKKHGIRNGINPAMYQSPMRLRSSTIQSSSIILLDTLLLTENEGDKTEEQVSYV
Procedure: Evaluation of the agonist activity of compounds (I), (Ia), (Ib), (Ic) and (Id) at the human 5-HT2B receptor was performed by Eurofins/Cerep (France) measuring the compound effects on inositol monophosphate (IP1) production using the HTRF detection method. Briefly, the human 5-HT2B receptor was expressed in transfected CHO cells. The cells were suspended in a buffer containing 10 mM Hepes/NaOH (pH 7.4), 4.2 mM KCl, 146 mM NaCl, 1 mM CaCl2, 0.5 mM MgCl2, 5.5 mM glucose and 50 mM LiCl, then distributed in microplates at a density of 4100 cells/well and incubated for 30 minutes at 37° C. in the presence of buffer (basal control), test compound or reference agonist. For stimulated control measurement, separate assay wells contained 1 μM 5-HT. Following incubation, the cells were lysed and the fluorescence acceptor (fluorophen D2-labeled IP1) and fluorescence donor (anti-IP1 antibody labeled with europium cryptate) were added. After 60 minutes at room temperature, the fluorescence transfer was measured at lambda (Ex) 337 nm and lambda (Em) 620 and 665 nm using a microplate reader (Rubystar, BMG). The IP1 concentration was determined by dividing the signal measured at 665 nm by that measured at 620 nm (ratio). The results were expressed as a percent of the control response to 1 μM 5-HT. The standard reference agonist was 5-HT, which was tested in each experiment at several concentrations to generate a concentration-response curve from which its EC50 value is calculated as described above for dopamine functional assays.

[9] = test system: rat hepatocytes; conditions: WO 2010/097092; cited from earlier work
[10] = test system: human hepatocytes; conditions: WO 2010/097092; cited from earlier work
[11] = In vivo conversion after oral dosing in minipigs
[12] = Conversion in fresh human blood; format: in vitro ADME; conditions: fresh blood 37° C., 1 μg/mL, 0-60 minutes
Procedure: (§2) Conversion of (Id) in human blood (average of 3 donors) and rat blood (average of 45 donors) to (I) was shown in fresh blood at 37° C. spiked with 1 μg/mL of (Id). (I) was measured at 0, 5, 15, 30 and 60 minutes in isolated plasma. Analysis method and Instrumentation as described in Example 7 below in the section “Instrumentation used for analysis of compound (I) from dosing of compounds (Ic) and (Id).”

[13] = Conversion in fresh rat blood; format: in vitro ADME; conditions: fresh blood 37° C., 1 μg/mL, 0-60 minutes
Procedure: as §2

[14] = target: T1, human 5-HT2B receptor; experiment: 5-HT2B radioligand binding assay; conditions: [125I](±)DOI, CHO cell membranes, read-out: 5-HT2B binding affinity (% inhibition of control, specific binding)
Procedure: Membrane homogenates prepared from CHO cells expressing the human 5HT2B receptor were incubated for 60 minutes at room temperature with 0.2 nM [1251](±)DOI (1-(4-iodo-2, 5-dimethoxyphenyl)propan-2-amine) in the absence or presence of the test compound in a buffer containing 50 mM Tris-HCl (pH 7.4), 5 mM MgCl2, 10 μM pargyline and 0.1% ascorbic acid. Nonspecific binding is determined in the presence of 1 μM (±)DOI. Following incubation, the samples were filtered rapidly under vacuum through glass fiber filters (GF/B, Packard) presoaked with 0.3% polyethyleneimine (PEI) and rinsed several times with ice-cold 50 mM Tris-HCl using a 96-sample cell harvester (Unifilter, Packard). The filters were dried and counted for radioactivity in a scintillation counter (Topcount, Packard) using a scintillation cocktail (Microscint 0, Packard). The results are expressed as a percent inhibition of the control radioligand specific binding. The standard reference compound was (±)DOI, which was tested in each experiment at several concentrations to obtain a competition curve from which its IC50 is calculated.

[15] = target: T2, human D1 receptor (Homo sapiens, UniProt P21728); experiment: Dopamine D1 receptor agonism, HTRF cAMP assay; format: cell-based; conditions: example 5 and table 2 (D1 and D2 assays)
T2 construct: host or cells: HEK-293
T2 sequence (P21728 whole entry): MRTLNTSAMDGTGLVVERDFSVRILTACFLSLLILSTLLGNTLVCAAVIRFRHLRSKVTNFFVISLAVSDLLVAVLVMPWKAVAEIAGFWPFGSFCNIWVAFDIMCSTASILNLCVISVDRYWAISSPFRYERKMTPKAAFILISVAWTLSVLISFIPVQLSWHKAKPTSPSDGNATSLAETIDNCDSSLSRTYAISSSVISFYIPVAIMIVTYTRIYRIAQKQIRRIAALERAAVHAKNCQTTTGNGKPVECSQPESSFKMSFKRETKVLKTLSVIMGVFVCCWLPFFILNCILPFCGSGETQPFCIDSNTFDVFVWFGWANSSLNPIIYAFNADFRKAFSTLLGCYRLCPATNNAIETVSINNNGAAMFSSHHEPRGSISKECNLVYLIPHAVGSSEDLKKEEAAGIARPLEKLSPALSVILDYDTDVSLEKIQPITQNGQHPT
Procedure: Dopamine D1 receptor agonism was measured using a HTRF cAMP from CisBio using the protocol developed by HD Biosciences (China). Briefly, the assay is a homogeneous time resolved-fluorescence resonance energy transfer (HTRF) assay that measures production of cAMP by cells in a competitive immunoassay between native cAMP produced by cells and cAMP-labeled with XL-665. A cryptate-labeled anti-cAMP antibody visualizes the tracer. The assay was performed in accordance with instructions from manufacturer.
Test compounds were added to wells of microplates (384 format). […] HTRF cAMP was measured by excitation of the donor with 337 nm laser (the “TRF light unit”) and subsequent (delay time 100 microseconds) measurement of cryptate and d2 emission at 615 nm and 665 nm over a time window of 200 microseconds with a 2000 microseconds time window between repeats/100 flashes). HTRF measurements were performed on an Envision microplate reader (PerkinElmer). The HTRF signal was calculated as the emission-ratio at 665 nm over 615 nm. The HTRF ratio readout for test compounds was normalized to 0% and 100% stimulation using control wells with DMSO-solvent or 30 μM dopamine. […]

[16] = (Id) 10 to 300 μg/kg p.o., apomorphine 3 mg/kg s.c., pramipexole 0.3 mg/kg s.c.
[17] = 1 μg/mL, 37° C., 0.25-60 minutes

In the case of `CCCc1cc2c(s1)CN[C@@H]1CCc3cc(OC(C)=O)c(OC(C)=O)cc3[C@@H]21` [adrogolide], the Antiparkinson efficacy [1] is given as “comparable to that of L-DOPA” and the Oral bioavailability [2] is given as ~4%.

For `CN1CCc2cccc3c2[C@H]1Cc1ccc(O)c(O)c1-3` [apomorphine], the “Relationship between plasma concentration and hyperactivity” value [3] was “correlation between plasma concentrations of apomorphine and hyperactive behaviour” and the “Locomotor activity: start of effect post-administration” value [3, 16] was “immediate”.

For `CCCN1CCC[C@@H]2Cc3c(ccc(O)c3O)C[C@H]21` [compound (I), (4aR,10aR)-1-Propyl-1,2,3,4,4a,5,10,10a-octahydro-benzo[g]quinoline-6,7-diol], the “Conjugation of compound (I) in human hepatocytes” value [4] is given as “conjugated in rat and human hepatocytes to sulfate and glucuronide derivatives”, the “Efficacy in animal models relevant for Parkinson's Disease” value (shortened to “Efficacy in animal models relevant”) [5] is given as “effective” and the “Conjugation of compound (I) in rat hepatocytes” value [6] is given as “conjugated in rat and human hepatocytes to sulfate and glucuronide derivatives”.

In the case of `CCCN1CCC[C@@H]2CC3=C(CCCC3=O)C[C@H]21` [compound (Ia)], the “Plasma profile of compound (I) after oral dosing of the prodrug (in words)” value (“Plasma profile of compound (I)” below) [7] is listed as “early and high peak concentrations of compound (I)”, the “5-HT2B agonist effect @ 30 μM” value ([8]; 30 μM, percent of control response to 1 μM 5-HT) is listed as 58% and the “Efficacy in animal models relevant” value [5] is listed as “effective”.

In the case of `CCCN1CCC[C@@H]2Cc3c(ccc4c3OCO4)C[C@H]21` [compound (Ib)], the “Plasma profile of compound (I)” value [7] is listed as “early and high peak concentrations of compound (I)”, the “Conversion of (Ib) to compound (I) in rat hepatocytes” value [9] is listed as “demonstrated” and the “5-HT2B receptor agonism (in words)” value [8] is listed as “agonist of the 5-HT2B receptor”. The “Conversion of (Ib) to compound (I) in human hepatocytes” value [10] was “demonstrated” and the “Efficacy in animal models relevant” value [5] was “effective”.

With `CCCN1CCC[C@@H]2Cc3c(ccc(OC(=O)C(C)(C)C)c3OC(=O)C(C)(C)C)C[C@H]21` [compound (Ic)] the “Plasma profile of compound (I)” value [7] was “extremely low” and the “5-HT2B agonist effect @ 10 μM” value ([8]; 10 μM, percent of control response to 1 μM 5-HT) was −5% @ 10 μM.

In the case of `CCCN1CCC[C@@H]2Cc3c(ccc(O)c3O[C@@H]3O[C@H](C(=O)O)[C@@H](O)[C@H](O)[C@H]3O)C[C@H]21` [compound (Id), (2S,3S,4S,5R,6S)-3,4,5-trihydroxy-6-(((4aR,10aR)-7-hydroxy-1-propyl-1,2,3,4,4a,5,10,10a-octahydrobenzo[g]quinolin-6-yl)oxy)tetrahydro-2H-pyran-2-carboxylic acid], the “Conversion of (Id) to compound (I) in human hepatocytes” value [4, 17] is reported as “time dependent conversion”, the “In vivo conversion of (Id) to compound (I)” value [11] is reported as “observed” and the “Plasma profile of compound (I)” value [7] is reported as “slower absorption rate avoiding rapid peak concentrations”. For the same molecule, the “Conversion of (Id) to compound (I) in human blood” value [12] was “time dependent conversion”, the “Relationship between plasma concentration and hyperactivity” value [3] was “correlate with the plasma concentrations of compound (I)” and the “Locomotor activity: start of effect post-administration” value [3, 16] was ~2 h. The “Locomotor activity: end of effect post administration” value ([3]; (Id) 10 to 300 μg/kg p.o., apomorphine 3 mg/kg s.c., recording until 415-minute time point) was “lasting until the end of recording”, the “Total distance travelled (FIG. 3)” value ([3]; versus vehicle, (Id) p.o., apomorphine 3 mg/kg s.c., pramipexole 0.3 mg/kg s.c.) was “significantly increased activity” and the “5-HT2B receptor agonism (in words)” value [8] was “not a 5-HT2B agonists”. For the same molecule, the “Conversion of (Id) to compound (I) in rat blood” value [13] was “time dependent conversion”, the inhibition at 10 µM [14] was -25% and the “Conversion of (Id) to compound (I) in rat hepatocytes” value [6, 17] was “time dependent conversion”. For the same molecule, the “In vitro dopaminergic activity (in words)” value [15] was “no in vitro dopaminergic activity”.
